Laboratory results from patent US12594277B2, “Macrocyclic ULK1/2 inhibitors” (SALK INSTITUTE FOR BIOLOGICAL STUDIES, priority 2020, dated 2026).

Legend:
[1] = target: T1, recombinant human ULK1 protein (1-649) (Homo sapiens, UniProt O75385); assay: ULK1 inhibition assay (ADP-Glo); type: biochemical; settings: 2 ug/mL ULK1, 80 ug/mL myelin basic protein, 25 uM ATP, assessed after one hour
T1 construct: recombinant human ULK1 protein (1-649, SignalChem #U01-11G); purchased SignalChem U01-11G
T1 sequence (O75385 1-649): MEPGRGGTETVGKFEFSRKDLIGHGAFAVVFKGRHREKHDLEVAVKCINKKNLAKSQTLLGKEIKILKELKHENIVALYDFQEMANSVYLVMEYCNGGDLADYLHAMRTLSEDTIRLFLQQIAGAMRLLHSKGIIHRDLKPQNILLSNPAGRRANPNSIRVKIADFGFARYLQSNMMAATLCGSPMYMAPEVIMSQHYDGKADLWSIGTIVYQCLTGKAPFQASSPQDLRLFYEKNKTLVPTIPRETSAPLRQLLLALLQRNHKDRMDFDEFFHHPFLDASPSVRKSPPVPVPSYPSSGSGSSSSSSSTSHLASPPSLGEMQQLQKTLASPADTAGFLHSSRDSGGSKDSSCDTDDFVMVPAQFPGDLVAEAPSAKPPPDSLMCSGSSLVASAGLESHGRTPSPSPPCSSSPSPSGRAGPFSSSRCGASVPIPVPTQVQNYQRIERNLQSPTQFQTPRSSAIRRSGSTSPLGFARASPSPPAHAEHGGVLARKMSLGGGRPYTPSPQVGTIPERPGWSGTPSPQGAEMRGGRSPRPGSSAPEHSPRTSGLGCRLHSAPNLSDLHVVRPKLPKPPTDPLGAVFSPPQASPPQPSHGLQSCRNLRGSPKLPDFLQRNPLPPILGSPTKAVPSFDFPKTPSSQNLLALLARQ
Description: IC50s measured by ADP-Glo assay are represented nM, with A representing IC50<20 nM, B representing IC50>20 nM. NT indicates the compound was not tested. ULK1 inhibition assays were performed in a 5 uL reaction volume containing 2 ug/mL recombinant human ULK1 protein (1-649, SignalChem #U01-11G) and 80 ug/mL myelin basic protein (MBP, Sigma-Aldrich #M1891) in the presence of 25 uM ATP (Sigma-Aldrich A7699). ULK 1 inhibition was assessed after one hour. Compounds were tested in triplicate in a 16-dose IC50 mode with 3-fold serial dilution and a starting dose of 30 uM. Staurosporine, a non-selective protein kinase inhibitor, was used in the assay as a positive control. Three separate experiments were carried out.

[2] = target: T2, NanoLuc-ULK1 fusion in HEK293T cells (Homo sapiens, UniProt O75385); assay: ULK1 NanoBRET assay; type: cell-based; settings: HEK293T transfected with NanoLuc-ULK1 Fusion Vector, Tracer K-5, 2 h incubation
T2 construct: host or cells: HEK293T
T2 sequence (O75385 1-1050): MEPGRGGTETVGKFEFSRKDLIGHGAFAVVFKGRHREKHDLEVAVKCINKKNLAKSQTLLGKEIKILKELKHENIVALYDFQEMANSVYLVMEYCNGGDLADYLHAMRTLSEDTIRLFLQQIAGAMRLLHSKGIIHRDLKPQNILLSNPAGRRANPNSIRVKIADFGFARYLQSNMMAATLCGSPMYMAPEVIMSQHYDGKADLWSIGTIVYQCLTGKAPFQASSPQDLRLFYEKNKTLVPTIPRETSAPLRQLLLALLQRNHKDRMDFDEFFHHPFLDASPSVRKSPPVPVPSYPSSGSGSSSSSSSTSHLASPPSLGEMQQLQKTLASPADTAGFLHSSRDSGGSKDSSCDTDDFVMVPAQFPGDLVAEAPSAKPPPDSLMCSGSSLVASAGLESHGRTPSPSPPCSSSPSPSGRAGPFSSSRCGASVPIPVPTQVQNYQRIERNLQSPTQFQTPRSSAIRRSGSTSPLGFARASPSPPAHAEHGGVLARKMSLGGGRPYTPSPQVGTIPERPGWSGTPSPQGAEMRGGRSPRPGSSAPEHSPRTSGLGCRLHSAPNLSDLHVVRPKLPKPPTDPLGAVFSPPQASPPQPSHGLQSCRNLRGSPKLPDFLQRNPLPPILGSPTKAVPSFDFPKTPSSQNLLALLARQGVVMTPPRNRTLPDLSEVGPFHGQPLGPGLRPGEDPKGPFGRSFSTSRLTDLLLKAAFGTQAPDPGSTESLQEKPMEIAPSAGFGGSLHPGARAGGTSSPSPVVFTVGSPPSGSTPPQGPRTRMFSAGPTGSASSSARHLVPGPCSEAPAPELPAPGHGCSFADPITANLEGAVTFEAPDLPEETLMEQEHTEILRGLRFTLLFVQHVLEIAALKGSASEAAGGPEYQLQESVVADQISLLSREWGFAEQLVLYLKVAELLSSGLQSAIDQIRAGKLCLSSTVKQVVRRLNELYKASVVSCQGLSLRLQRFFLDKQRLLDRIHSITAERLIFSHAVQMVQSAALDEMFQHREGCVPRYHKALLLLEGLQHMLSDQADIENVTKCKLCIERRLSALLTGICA
Description: IC50s were also measured by ULK1 NanoBRET assay according to the following protocol: Human embryonic kidney cells (HEK293T) were transfected with NanoLuc®-ULK1 Fusion Vector (Promega #NV2211) using jetPRIME transfection reagent (Polyplus Transfection #114-15). Following 24 h, cells were trypsinized and resuspended in Opti-MEM® I (1×), Reduced Serum Medium (Gibco, #11058-021). Approximately, 7,000 cells per well (in 34 μL total volume) were replated into non-binding surface 384 well plates. Complete NanoBRET 20× Tracer K-5 reagent was prepared according to the manufacturer's directions and 2 μL were added to each well of the 384 plate (assay plate). The assay plate was mixed on an orbital shaker for 15 seconds at 700 rpm. Compounds were serially diluted at 200× final concentration in […], then diluted to 10× final concentration in assay media (Opti-MEM® I, Reduced Serum Medium). Next, 4 μL 10× test compounds were added to each well of the assay plate, followed by mixing at 700 rpm for 15 seconds. The assay plate was incubated for 2 h in a 37 C incubator with […] and then equilibrated to RT for 15 min. The 3× Complete Substrate plus Inhibitor Solution was prepared according to the manufacturer's directions with a concentration of Extracellular NanoLuc® Inhibitor of 60 μM to be used at a working concentration of 20 μM. The 3× Complete Substrate plus Inhibitor Solution was mixed and 20 μL per well was added to the assay plate and incubated at RT for 2-3 min. Donor emission wavelength (450 nm) and acceptor emission wavelength (610 nm) were measured using an assay compatible luminometer (see manufacturer's specifications).

Row | IC50 [1] [nM] | IC50 [2] [nM] | SMILES
1 | > 20 | > 1000 | CNC(=O)c1ccc2cc1Nc1nc(ncc1C(F)(F)F)Nc1ccc(OC)c(c1)OC/C=C\CCCO2 [Compound 12, (E)-1^4-methoxy-N-methyl-35-(trifluoromethyl)-6,13-dioxa-2,4-diaza-3(2,4)-pyrimidina-1,5(1,3)-dibenzenacyclotridecaphan-10-ene-5^6-carboxamide]
2 | < 20 | < 1000 | CNC(=O)c1cc2ccc1Nc1nc(ncc1C(F)(F)F)Nc1ccc(OC)c(c1)OC/C=C/CCO2 [Compound 9, (E/Z)-1^4-Methoxy-N-methyl-3^5-(trifluoromethyl)-6,12-dioxa-2,4-diaza-3(2,4)-pyrimidina-1(1,3),5(1,4)-dibenzenacyclododecaphan-9-ene-5^2-carboxamide]
3 | < 20 | < 1000 | CNC(=O)c1cc2ccc1Nc1nc(ncc1C(F)(F)F)Nc1ccc(c(OC)c1)OC/C=C/CCCO2 [Compound 6, (E/Z)-1^3-Methoxy-N-methyl-3^5-(trifluoromethyl)-6,13-dioxa-2,4-diaza-3(2,4)-pyrimidina-1,5(1,4)-dibenzenacyclotridecaphan-10-ene-5^2-carboxamide]

More lines, now with the values behind:

Row | SMILES | IC50 [1] [nM] | IC50 [2] [nM]
4 | CNC(=O)c1cc2ccc1Nc1nc(ncc1C(F)(F)F)Nc1ccc(c(OC)c1)OCCCCCO2 [Compound 1, 1^3-Methoxy-N-methyl-3^5-(trifluoromethyl)-6,12-dioxa-2,4-diaza-3(2,4)-pyrimidina-1,5(1,4)-dibenzenacyclododecaphane-5^2-carboxamide] | < 20 | > 1000
5 | CNC(=O)c1cc2ccc1Nc1nc(ncc1C(F)(F)F)Nc1ccc(OC)c(c1)OC/C=C/CCCO2 [Compound 18, (E)-1^4-methoxy-N-methyl-3^5-(trifluoromethyl)-6,13-dioxa-2,4-diaza-3(2,4)-pyrimidina-1(1,3),5(1,4)-dibenzenacyclotridecaphan-10-ene-5^2-carboxamide] | < 20 | > 1000
6 | CNC(=O)c1cc2ccc1Nc1nc(ncc1C(F)(F)F)Nc1ccc(OC)c(c1)OCCCCCO2 [Compound 10, 1^4-Methoxy-N-methyl-3^5-(trifluoromethyl)-6,12-dioxa-2,4-diaza-3(2,4)-pyrimidina-1(1,3), 5(1,4)-dibenzenacyclododecaphane-5^2-carboxamide] | < 20 | > 1000
